Source: patent US20240252652A1, “PROTEINS HAVING UNNATURAL AMINO ACIDS AND METHODS OF USE” (The Regents of the University of California, priority 2021, published 2024)

Experiments:
Afb-Z complex = assay: Cross-linking of MBP-Z24SFY and Afb4A-7X in live E. coli cells; type: cell-based; details: 6 h expression, Western blot
From the text: To determine which amino acid residues could react with SFY via proximity-enabled reactivity directly in cells, we coexpressed in E. coli the Z protein and an affibody (Afb) specifically binding it. Based on the crystal structure of Afb-Z complex, we introduced SFY at site 24 of the Z protein and various natural residues at site 7 of the affibody (FIG. 11D), placing the two residues in close proximity upon Afb-Z binding. (Wang et al. J. Am Chem. Soc. 140:4995-4999 (2018)). After expression of Afb(24SFY) and Z(7X) (X=target residue) for 6 h. cells were lysed and analyzed with Western blot under denatured conditions (FIG. 11E). Crosslinking bands corresponding to the adduct of Afb and Z were detected for target residue His. Tyr, and Lys, for both Mm-tRNA^Pyl/MmSFYRS and Ma-tRNA^Pyl/MaSFYRS. We then purified 6×His-tagged Z and Afb proteins from cells and analyzed with SDS-PAGE. Consistently, a protein band corresponding to the cross-linked Z with Afb was clearly observed for Afb-7Lys. Afb-7His, and Afb-7Tyr (FIG. 11E). We further tested if SFY could crosslink with these residues in mammalian cells. […] (Liu et al. J. Am Chem. 141:9458-9462 (2019)). We incorporated SFY at site 103 of GST and mutated residue 107 to various target residues. HEK293T cells expressing these GST mutants were lysed and Western blotted to detect covalent GST dimer formation (FIG. 11G). […]

[1] = test system: nucleoside monophosphates (AMP, UMP, CMP, GMP); assay: In vitro incubations of NMPs and SFY (MS detection of adducts); type: biochemical; details: 50 mM SFY, 50 mM NMP, 37° C., 16 hours
Protocol: In addition, to check if SFY could cross-link all four nucleotides, we incubated 50 mM SFY with 50 mM different nucleoside monophosphates (NMPs: AMP, UMP, CMP, or GMP) at 37° C. for 16 hours.
In vitro incubations of NMPs and SFY. 50 mM SFY (HCl salt) and 50 mM NMP was incubated in DI H2O. 50 mM NaOH was added to neutralize the HCl salt. The mixture was incubated at 37° C. for […]. Then the reaction mixture was diluted for 50 times in H2O/acetonitrile (50/50, v/v, with 0.1% trifluoracetic acid) and subjected to mass spectrum analysis using positive mode. Mass spectrum analysis was performed on SCIEX MDS, 3200 Q TRAP system.
The molecular weight (MW) of addict products between SFY and NMP was calculated following this equation: MW (adduct product)=MW (SFY)+MW (NMP)−MW (HF).

SMILES: COc1ccc(C[C@H](N)C(=O)O)cc1S(=O)(=O)F [SFY, (S)-1-carboxy-2-(3-(fluorosulfonyl)-4-methoxyphenyl)ethan-1-aminium]
- target residues giving crosslinking bands (adduct of Afb and Z) (Afb-Z complex): detected for target residue His. Tyr, and Lys
- cross-linking adducts with NMPs [1]: adducts of SFY with all four NMPs were detected
